Like-named read-outs stand apart in the source and are kept apart here. Each block holds one molecule with its values, some of them ahead of it.
Legend:
Experiment in all cases: biochemical
Design in all cases: DiscoveRx KINOMEscan active site-directed competition binding; percent of control kinase bound to immobilised ligand
SRPK3 = SRPK3 (Homo sapiens, UniProt Q9UPE1)
TRKA = biological target: T1, TRKA (Homo sapiens, UniProt P04629)
T1 construct: gene NTRK1

DMPK2 = biological target: T2, DMPK2 (Homo sapiens, UniProt Q6DT37)
T2 construct: gene CDC42BPG

DCAMKL3 = biological target: T3, DCAMKL3 (Homo sapiens, UniProt Q9C098)
T3 construct: gene DCLK3
T3 sequence (Q9C098 1-648): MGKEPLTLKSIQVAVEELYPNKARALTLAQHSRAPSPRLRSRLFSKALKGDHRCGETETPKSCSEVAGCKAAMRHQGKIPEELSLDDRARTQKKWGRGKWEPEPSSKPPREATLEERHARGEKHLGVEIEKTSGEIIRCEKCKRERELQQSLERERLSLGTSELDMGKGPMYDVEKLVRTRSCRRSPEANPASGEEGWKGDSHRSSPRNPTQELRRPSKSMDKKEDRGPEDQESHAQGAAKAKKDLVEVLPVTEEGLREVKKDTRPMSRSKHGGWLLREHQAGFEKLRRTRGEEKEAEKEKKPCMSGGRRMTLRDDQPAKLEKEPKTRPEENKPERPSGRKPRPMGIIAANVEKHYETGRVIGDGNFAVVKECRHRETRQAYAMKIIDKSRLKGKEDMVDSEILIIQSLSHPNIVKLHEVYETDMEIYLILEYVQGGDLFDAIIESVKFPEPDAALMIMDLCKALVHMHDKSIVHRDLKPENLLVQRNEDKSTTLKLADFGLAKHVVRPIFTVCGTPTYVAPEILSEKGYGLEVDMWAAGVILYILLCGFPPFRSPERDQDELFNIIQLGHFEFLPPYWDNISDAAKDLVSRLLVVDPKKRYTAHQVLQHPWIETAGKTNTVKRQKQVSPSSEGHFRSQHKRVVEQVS

TAOK2 = biological target: T4, TAOK2 (Homo sapiens, UniProt Q9UL54)
T4 sequence (Q9UL54 1-1235): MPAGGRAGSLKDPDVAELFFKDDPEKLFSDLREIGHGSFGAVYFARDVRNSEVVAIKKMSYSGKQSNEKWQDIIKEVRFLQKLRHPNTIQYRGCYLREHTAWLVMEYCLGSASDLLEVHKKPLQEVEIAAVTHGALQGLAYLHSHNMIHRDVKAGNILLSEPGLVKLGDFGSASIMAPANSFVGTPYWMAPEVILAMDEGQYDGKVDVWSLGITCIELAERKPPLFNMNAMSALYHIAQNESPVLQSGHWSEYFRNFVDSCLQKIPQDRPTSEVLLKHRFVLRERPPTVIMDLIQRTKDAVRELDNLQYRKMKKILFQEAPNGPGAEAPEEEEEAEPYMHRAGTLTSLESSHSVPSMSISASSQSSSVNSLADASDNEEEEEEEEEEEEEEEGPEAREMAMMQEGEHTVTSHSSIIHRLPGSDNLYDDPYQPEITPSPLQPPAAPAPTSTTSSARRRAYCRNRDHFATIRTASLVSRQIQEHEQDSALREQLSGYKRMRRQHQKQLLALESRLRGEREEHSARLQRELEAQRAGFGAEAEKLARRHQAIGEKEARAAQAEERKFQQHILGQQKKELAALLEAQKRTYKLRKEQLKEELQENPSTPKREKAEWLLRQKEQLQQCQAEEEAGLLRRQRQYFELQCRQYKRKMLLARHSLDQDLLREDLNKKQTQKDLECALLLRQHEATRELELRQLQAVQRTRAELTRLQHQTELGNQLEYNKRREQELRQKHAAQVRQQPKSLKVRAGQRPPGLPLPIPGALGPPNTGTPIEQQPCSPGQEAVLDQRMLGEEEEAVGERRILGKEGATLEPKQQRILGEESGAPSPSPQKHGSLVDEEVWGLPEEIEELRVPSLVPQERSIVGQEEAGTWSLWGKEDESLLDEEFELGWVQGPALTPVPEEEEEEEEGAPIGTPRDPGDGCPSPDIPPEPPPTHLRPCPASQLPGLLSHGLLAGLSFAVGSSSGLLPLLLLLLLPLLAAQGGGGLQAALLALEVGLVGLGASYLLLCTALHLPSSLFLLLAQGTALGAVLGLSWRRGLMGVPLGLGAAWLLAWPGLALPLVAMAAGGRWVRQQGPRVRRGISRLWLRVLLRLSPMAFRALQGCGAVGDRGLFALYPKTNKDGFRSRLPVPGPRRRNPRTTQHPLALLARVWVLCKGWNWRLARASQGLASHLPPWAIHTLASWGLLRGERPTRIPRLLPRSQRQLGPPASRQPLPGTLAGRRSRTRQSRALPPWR

YANK1 = biological target: T5, YANK1 (Homo sapiens, UniProt Q8WU08)
T5 construct: gene STK32A

DRAK1 = biological target: T6, DRAK1 (Homo sapiens, UniProt Q9UEE5)
T6 construct: gene STK17A
T6 sequence (Q9UEE5 1-414): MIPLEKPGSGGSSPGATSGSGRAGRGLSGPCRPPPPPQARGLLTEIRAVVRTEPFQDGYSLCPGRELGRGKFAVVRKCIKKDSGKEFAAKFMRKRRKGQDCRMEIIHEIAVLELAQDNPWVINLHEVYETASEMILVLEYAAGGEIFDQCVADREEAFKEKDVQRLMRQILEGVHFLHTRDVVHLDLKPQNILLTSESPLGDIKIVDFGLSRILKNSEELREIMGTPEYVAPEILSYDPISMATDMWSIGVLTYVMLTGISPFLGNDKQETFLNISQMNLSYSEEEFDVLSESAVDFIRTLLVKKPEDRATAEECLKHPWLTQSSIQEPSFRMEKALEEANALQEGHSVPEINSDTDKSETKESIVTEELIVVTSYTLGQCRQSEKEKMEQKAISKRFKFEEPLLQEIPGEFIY

[1] = read-out: Olaparib / %Ctrl @ 10000nM
[2] = read-out: Talazoparib (BMN 673) / %Ctrl @ 10000nM
[3] = read-out: Rucaparib / %Ctrl @ 10000nM, binding competition, % of control
[4] = read-out: Niraparib (MK-4827) / %Ctrl @ 10000nM

T5 sequence (Q8WU08 whole entry): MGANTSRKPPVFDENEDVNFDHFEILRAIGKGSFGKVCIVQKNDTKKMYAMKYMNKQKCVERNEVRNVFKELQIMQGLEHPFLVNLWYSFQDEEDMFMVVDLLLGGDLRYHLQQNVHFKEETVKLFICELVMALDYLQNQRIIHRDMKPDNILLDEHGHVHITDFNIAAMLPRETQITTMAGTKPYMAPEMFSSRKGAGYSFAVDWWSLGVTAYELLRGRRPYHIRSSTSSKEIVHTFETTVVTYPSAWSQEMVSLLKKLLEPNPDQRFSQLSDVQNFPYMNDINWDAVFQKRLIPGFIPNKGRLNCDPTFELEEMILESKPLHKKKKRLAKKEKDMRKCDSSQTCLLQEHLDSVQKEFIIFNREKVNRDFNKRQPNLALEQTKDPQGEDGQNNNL
SRPK3, sequence (Q9UPE1 whole entry): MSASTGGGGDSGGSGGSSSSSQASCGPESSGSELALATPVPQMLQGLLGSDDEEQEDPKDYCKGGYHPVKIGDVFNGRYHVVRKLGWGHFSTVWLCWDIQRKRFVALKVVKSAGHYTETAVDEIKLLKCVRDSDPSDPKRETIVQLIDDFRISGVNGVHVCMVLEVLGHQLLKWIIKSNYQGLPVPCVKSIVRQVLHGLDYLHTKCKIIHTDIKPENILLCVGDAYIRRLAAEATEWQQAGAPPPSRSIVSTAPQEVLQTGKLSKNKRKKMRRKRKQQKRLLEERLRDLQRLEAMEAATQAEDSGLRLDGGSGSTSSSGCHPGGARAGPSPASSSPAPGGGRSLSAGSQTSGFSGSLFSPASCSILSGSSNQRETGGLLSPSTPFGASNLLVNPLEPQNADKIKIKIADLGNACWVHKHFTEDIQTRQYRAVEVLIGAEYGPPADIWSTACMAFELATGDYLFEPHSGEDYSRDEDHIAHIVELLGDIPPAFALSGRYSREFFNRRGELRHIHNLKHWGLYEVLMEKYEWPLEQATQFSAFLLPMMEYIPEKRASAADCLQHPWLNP
T2 sequence (Q6DT37 whole entry): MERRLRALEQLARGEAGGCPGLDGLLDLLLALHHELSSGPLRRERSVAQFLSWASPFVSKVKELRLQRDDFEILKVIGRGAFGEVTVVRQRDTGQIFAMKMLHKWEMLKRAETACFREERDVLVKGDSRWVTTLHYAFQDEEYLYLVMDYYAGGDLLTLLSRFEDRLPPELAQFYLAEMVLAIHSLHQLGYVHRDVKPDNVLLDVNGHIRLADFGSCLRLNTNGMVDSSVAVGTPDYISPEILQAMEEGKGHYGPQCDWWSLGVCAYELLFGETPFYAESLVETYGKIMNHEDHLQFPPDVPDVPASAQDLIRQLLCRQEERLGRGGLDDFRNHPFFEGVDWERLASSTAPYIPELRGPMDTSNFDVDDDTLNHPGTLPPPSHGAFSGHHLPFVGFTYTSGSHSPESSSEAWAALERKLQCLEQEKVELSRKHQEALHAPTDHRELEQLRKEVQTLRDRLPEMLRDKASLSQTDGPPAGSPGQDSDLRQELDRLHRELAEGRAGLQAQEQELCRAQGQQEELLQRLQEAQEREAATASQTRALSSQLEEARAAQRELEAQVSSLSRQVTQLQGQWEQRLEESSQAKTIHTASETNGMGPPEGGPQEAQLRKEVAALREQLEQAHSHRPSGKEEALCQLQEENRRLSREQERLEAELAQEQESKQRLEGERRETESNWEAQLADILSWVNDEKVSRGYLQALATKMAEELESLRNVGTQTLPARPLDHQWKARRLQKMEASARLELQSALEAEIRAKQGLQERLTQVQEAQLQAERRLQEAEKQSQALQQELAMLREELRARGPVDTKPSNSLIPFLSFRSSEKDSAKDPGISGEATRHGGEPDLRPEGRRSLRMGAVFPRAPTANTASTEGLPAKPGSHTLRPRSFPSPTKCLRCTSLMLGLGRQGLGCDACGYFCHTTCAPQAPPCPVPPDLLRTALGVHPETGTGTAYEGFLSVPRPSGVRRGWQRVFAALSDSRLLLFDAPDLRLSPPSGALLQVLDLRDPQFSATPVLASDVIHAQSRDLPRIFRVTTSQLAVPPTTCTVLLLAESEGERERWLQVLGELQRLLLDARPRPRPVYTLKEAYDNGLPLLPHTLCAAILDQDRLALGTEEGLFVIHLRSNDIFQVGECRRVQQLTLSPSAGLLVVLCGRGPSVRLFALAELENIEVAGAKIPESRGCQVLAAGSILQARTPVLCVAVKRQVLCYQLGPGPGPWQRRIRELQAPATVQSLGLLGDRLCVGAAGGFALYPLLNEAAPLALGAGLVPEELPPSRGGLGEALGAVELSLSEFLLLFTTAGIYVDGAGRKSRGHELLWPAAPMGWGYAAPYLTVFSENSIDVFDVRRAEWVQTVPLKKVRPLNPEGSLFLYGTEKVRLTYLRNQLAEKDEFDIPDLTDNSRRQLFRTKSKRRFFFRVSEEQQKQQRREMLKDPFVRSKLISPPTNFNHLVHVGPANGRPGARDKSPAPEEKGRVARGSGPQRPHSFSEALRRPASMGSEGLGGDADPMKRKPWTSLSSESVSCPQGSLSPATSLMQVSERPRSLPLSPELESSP
T1 sequence (P04629 whole entry): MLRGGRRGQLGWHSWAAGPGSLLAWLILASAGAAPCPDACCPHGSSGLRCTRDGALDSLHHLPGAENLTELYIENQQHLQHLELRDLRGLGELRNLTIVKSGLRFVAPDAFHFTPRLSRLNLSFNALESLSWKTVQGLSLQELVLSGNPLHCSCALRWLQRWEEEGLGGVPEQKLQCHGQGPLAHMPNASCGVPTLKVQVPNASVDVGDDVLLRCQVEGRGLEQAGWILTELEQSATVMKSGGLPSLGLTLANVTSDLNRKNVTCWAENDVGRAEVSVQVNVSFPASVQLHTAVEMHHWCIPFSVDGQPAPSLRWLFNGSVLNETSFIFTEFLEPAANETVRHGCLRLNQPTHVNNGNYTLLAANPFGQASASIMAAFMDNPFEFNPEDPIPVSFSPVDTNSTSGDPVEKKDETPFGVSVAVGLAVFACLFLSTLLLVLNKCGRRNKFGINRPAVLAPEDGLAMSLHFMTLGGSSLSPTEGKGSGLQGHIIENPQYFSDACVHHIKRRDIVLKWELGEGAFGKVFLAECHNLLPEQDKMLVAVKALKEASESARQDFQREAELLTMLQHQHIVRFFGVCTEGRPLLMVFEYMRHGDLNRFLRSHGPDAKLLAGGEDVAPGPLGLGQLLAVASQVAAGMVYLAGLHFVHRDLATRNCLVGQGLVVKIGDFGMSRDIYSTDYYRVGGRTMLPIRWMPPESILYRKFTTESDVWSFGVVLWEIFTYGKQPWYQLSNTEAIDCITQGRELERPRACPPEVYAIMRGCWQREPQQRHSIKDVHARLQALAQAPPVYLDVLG

percent of control binding at 10 µM (SRPK3; [1]): 84%
percent of control binding at 10 µM (TRKA; [1]): 91%
percent of control binding at 10 µM (DMPK2; [1]): 100%
percent of control binding at 10 µM (DCAMKL3; [1]): 88%
percent of control binding at 10 µM (TAOK2; [1]): 93%
percent of control binding at 10 µM (YANK1; [1]): 86%
percent of control binding at 10 µM (DRAK1; [1]): 95%
Compound: O=C(c1cc(Cc2n[nH]c(=O)c3ccccc23)ccc1F)N1CCN(C(=O)C2CC2)CC1 [Olaparib]

percent of control binding at 10 µM (SRPK3; [2]): 100%
percent of control binding at 10 µM (TRKA; [2]): 100%
percent of control binding at 10 µM (DMPK2; [2]): 100%
percent of control binding at 10 µM (DCAMKL3; [2]): 100%
percent of control binding at 10 µM (TAOK2; [2]): 100%
percent of control binding at 10 µM (YANK1; [2]): 100%
percent of control binding at 10 µM (DRAK1; [2]): 100%
Compound: Cn1ncnc1[C@H]1c2n[nH]c(=O)c3cc(F)cc(c23)N[C@@H]1c1ccc(F)cc1 [Talazoparib]

percent of control binding at 10 µM (SRPK3; [3]): 85%
percent of control binding at 10 µM (TRKA; [3]): 74%
percent of control binding at 10 µM (DMPK2; [3]): 99%
percent of control binding at 10 µM (DCAMKL3; [3]): 44%
percent of control binding at 10 µM (TAOK2; [3]): 71%
percent of control binding at 10 µM (YANK1; [3]): 69%
percent of control binding at 10 µM (DRAK1; [3]): 14%
Compound: CNCc1ccc(-c2[nH]c3cc(F)cc4c3c2CCNC4=O)cc1 [Rucaparib]

Compound: NC(=O)c1cccc2cn(-c3ccc([C@@H]4CCCNC4)cc3)nc12 [Niraparib]
percent of control binding at 10 µM (SRPK3; [4]): 71%
percent of control binding at 10 µM (TRKA; [4]): 99%
percent of control binding at 10 µM (DMPK2; [4]): 93%
percent of control binding at 10 µM (DCAMKL3; [4]): 85%
percent of control binding at 10 µM (TAOK2; [4]): 100%
percent of control binding at 10 µM (YANK1; [4]): 99%
percent of control binding at 10 µM (DRAK1; [4]): 26%

Reference: publication PMC7026418, “The kinase polypharmacology landscape of clinical PARP inhibitors” (Scientific Reports, 2020)
